Patent US20200352912A1, “ANTIMICROBIAL COMPOSITIONS AND METHODS OF USING THE SAME” (The Board Of Supervisors Of Louisiana State University And …, priority 2018, published 2020)
Entries after “also recorded” stand apart in the source; their conditions may differ.

Assays:
[1] = test system: C. albicans and S. aureus; experiment: mouse C. albicans-S. aureus polymicrobial intra-abdominal infection; format: in vivo, mice
Experimental: Effect of inhibition of EP4 receptor signaling on survival. Mice received either vehicle or EP4 receptor antagonist at a dose of 10 mg/kg by i.p. injection as indicated in Materials and Methods. Mortality was assessed using Kaplan Meier test (***P<0.001; n=20/group) compared to control groups. Data shown are representative of three replicate experiments.
The mouse peritonitis/intra-abdominal model was performed as previously described (8). In brief, for MRSA peritonitis, mice were injected intraperitoneally (i.p.) with 4×10^6 CFU or 5×10^6 CFU or 2×10^7 CFU of S. aureus in 0.2 ml of PBS containing 3% hog gastric mucin type III (Sigma Aldrich). Mice injected i.p. with 0.2 ml of mucin/PBS served as a negative infection control. For the intra-abdominal infection with C. albicans and S. aureus, mice were injected i.p. with 7×10^6 CFU of C. albicans and 8×10^7 CFU of S. aureus (8.7×10^7 CFU total) in 0.2 ml of PBS. After inoculation, mice were observed over 10 days for signs of morbidity (hunched posture, inactivity, lethargy, and ruffled fur) and mortality. […] In the MRSA peritonitis experiments, mice were sacrificed at 24 or 48 h post-inoculation to assess microbial burden. Peritoneal cavities were lavaged by injection of 2 ml of sterile PBS followed by gentle massaging of the peritoneal cavity. Peritoneal lavage fluid then was removed using a pipette inserted into a small incision in the abdominal cavity. Spleens were removed, weighed, and mechanically homogenized prior to CFU analysis. Microbial burdens in the peritoneal lavage fluid and spleen were enumerated as described above.
Each inhibitor was prepared fresh as a concentrated stock (20-25 mg/ml) in DMSO and diluted to a working concentration of […] in sterile PBS (final DMSO concentration, 2.3%). A sham treatment containing only 2.3% DMSO in PBS was also prepared. For the MRSA peritonitis study, the EP4 receptor antagonist was administered 2 h after S. aureus inoculation and once daily thereafter until day 4 post inoculation. For the IAI co-infection study, COX inhibitor or vehicle control was administered 4 h prior to and 4 and 8 h after inoculation with C. albicans and S. aureus while the EP receptor antagonists were administered daily starting 1 day prior to and 5 days after infection. All other procedures were performed as described above. Control groups received the vehicle at the same dose interval.
In a final set of experiments, we evaluated the ability of L-161, 982 to reduce lethality in co-infected mice. Mice co-inoculated with the standard 7×106 C. albicans CFU and 8×107 S. aureus CFU (8.7×10^7 CFU total) were treated with L-161, 982 (10 mg/kg) 2 h post infection and once daily afterwards until day 5. […]

S. aureus NRS383 = experiment: planktonic antimicrobial assay (OD600 growth); format: cell-based, Staphylococcus aureus; settings: 100 μg/ml (inhibitor-specific concentrations b175), OD600 up to 24 h
Experimental: Effect of COX enzyme inhibitors or PGE2 EP receptor antagonists on microbial growth. The antimicrobial activity of selective COX enzyme inhibitor or PGE2 EP receptor antagonist on the growth of C. albicans DAY185 (A), S. aureus NRS383 (B) and MRSA and MSSA clinical isolates (C). Growth of C. albicans and S. aureus was monitored for up to 24 h in medium alone or supplemented with DMSO or EP receptor antagonists or COX enzyme inhibitor at physiologically relevant concentrations. Data shown are representative of three independent experiments.
C. albicans and S. aureus were grown as described above. […] Cells were grown with shaking as described above, and 1 ml aliquots were removed each hour in duplicate and optical density at 600 nm measured (OD600) by spectrophotometer (Biomate 3S, Thermo Scientific).

[2] = test system: C. albicans and S. aureus; settings: mouse, in vivo; cited from earlier work
[3] = test system: S. aureus in polymicrobial biofilms; settings: 1,600 μg/ml; cited from earlier work

CC(C(=O)Nc1cc(C#N)ccc1CCCC(=O)O)c1ccc(F)c2ccccc12 (centres unmarked) [ONO AE3 208]
effect on survival ([1]; 10 mg/kg i.p.): no effect; also recorded: did not enhance survival
antimicrobial effect on S. aureus in vivo ([1]; mouse, in vivo): no antimicrobial effect
growth of S. aureus (S. aureus NRS383): no antimicrobial effect

COc1ccc2c(c1)c(CC(=O)O)c(C)n2C(=O)c1ccc(Cl)cc1 [indomethacin]
mortality of co-infected mice [2]: prevented mortality

CN[C@H](CC(C)C)C(=O)N[C@H]1C(=O)N[C@@H](CC(N)=O)C(=O)N[C@H]2C(=O)N[C@H]3C(=O)N[C@H](C(=O)N[C@H](C(=O)O)c4cc(O)cc(O)c4-c4cc3ccc4O)[C@H](O)c3ccc(c(Cl)c3)Oc3cc2cc(c3O[C@@H]2O[C@H](CO)[C@@H](O)[C@H](O)[C@H]2O[C@H]2C[C@](C)(N)[C@H](O)[C@H](C)O2)Oc2ccc(cc2Cl)[C@H]1O [vancomycin]
viability of S. aureus in polymicrobial biofilms [3]: no effect on viability
